Laboratory results: patent publication US20240123013A1, “SUPPLEMENT FOR ARTHRITIS AND PSORIASIS” (priority 2021, published 2024)

Assay: Comparison of arthritis gel compositions formulated with different crystalline CBDs (Example 12)
Conditions: gels differ only in the crystalline CBD used
Description: Two hydroalcoholic arthritis gel compositions are prepared according to Example 2, the only difference being that the crystalline CBD used in the formulation is either of type A (needle-like crystals; FIG. 1) or type B (bunch/cluster-like; FIG. 2).

Q: What does the source list for `C=C(C)[C@@H]1CCC(C)=C[C@H]1c1c(O)cc(CCCCC)cc1O` [type A CBD, cannabidiol]?
A: Activity of CBD in hydroalcoholic arthritis gel, crystal type A versus type B: significantly more active than type B CBD; Activity of CBD in hydroalcoholic arthritis gel, crystal type A versus type B (listed as crystal structure A): significantly more potent
